Experimental data reported in paper PMC10758951, “mRNA display reveals a class of high-affinity bromodomain-binding motifs that are not found in the human proteome” (The Journal of Biological Chemistry, 2023).

How the values were obtained:
[1] = Peptide solubility (as observed on sample preparation); assay type: physicochemical; settings: dissolved in water or experimental buffer; qualitative statement
Protocol: The concentrations of the peptides used in this study were determined by measuring absorbance at 205 nm ([21]) and NMR ([22]) quantification using a known concentration of 4,4-dimethyl-4-silapentane-1-sulfonic acid as a reference. Peptides were first dissolved in either water or experimental buffer, and measurements were made on the soluble peptide remaining in solution following removal insoluble peptide via centrifugation.

[2] = target: BRD3–BD1, BRD4–BD1, and BRD2–BD1; test: SPR, stated jointly for the BD1 domains; assay type: binding, human; settings: range over BRD3–BD1, BRD4–BD1 and BRD2–BD1; BD immobilized, peptide flowed; equilibrium steady state affinity analysis; read-out: Affinities (KD) for the three BD1 domains, SPR
From the text: (§1) The BDs from human BRD2 (BD1: 65–194; BD2: 347–455), BRD3 (BD1: 25–147; BD2: 307–419), and BRD4 (BD1: 42–168; BD2: 348–464) were expressed in Escherichia coli from pQE80L-Navi (Qiagen) as N-terminally His-tagged and biotinylated proteins for SPR. For other experiments, they were expressed from pGEX-6P (Cytiva) as N-terminal glutathione-S-transferase-fusion proteins. Expression and purification, via affinity chromatography and size-exclusion chromatography, of unlabeled and uniformly ^15N-labeled proteins were carried out as described previously ([11]).
Measurements were conducted on a T200 (Cytiva) and data analyzed using the Biacore Insight Evaluation Software. Experiments were performed at 4 °C in multicycle kinetics mode and fit using the equilibrium steady state affinity model (1:1 Langmuir binding isotherm). For experiments measuring the binding of the 2AcK peptide, biotinylated BET BDs were immobilized on a biotin CAP chip (Cytiva) with a target density of ∼1000 to 2000 RU and peptide was flowed over the chip. A buffer comprising 20 mM Mes (pH 6.5), 150 mM NaCl, 0.05% (v/v) Tween-20 was used as the running buffer. […]

BRD3–BD2 = target: T1, BRD3–BD2 (Homo sapiens, UniProt Q15059); test: SPR binding of peptides to BET bromodomains; settings: peptide flowed
T1 construct: BRD3 (BD1: 25–147; BD2: 307–419); His tag (N); biotinylation (Avi-type acceptor, vector pQE80L-Navi) (N); made in house; host or cells: Escherichia coli
T1 sequence (Q15059 307-419): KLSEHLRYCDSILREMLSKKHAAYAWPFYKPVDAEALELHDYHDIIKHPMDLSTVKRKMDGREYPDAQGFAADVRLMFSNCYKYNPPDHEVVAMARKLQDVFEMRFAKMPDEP
From the text: as §1
(§2) Measurements were conducted on a T200 (Cytiva) and data analyzed using the Biacore Insight Evaluation Software. Experiments were performed at 4 °C in multicycle kinetics mode and fit using the equilibrium steady state affinity model (1:1 Langmuir binding isotherm). For experiments measuring the binding of the 2AcK peptide, biotinylated BET BDs were immobilized on a biotin CAP chip (Cytiva) with a target density of ∼1000 to 2000 RU and peptide was flowed over the chip. A buffer comprising 20 mM Mes (pH 6.5), 150 mM NaCl, 0.05% (v/v) Tween-20 was used as the running buffer. For experiments measuring the binding of 1AcK.4E and 2AcK.4E, C-terminally biotinylated variants of the peptides were immobilized on a CM5 chip (Cytiva), which had been amine-coupled with streptavidin, to a target density of ∼50 to 100 RU and unlabeled BET BDs were flowed over the chip. A buffer comprising 20 mM Hepes (pH 7.5), 150 mM NaCl, and 0.05% (v/v) Tween-20 was used as the running buffer.

BRD2–BD2 = target: T2, BRD2–BD2 (Homo sapiens, UniProt P25440); test: SPR binding of peptides to BET bromodomains; settings: peptide flowed
T2 construct: human BRD2 (BD1: 65–194; BD2: 347–455); His tag (N); biotinylation (Avi-type acceptor, vector pQE80L-Navi) (N); made in house; host or cells: Escherichia coli
T2 sequence (P25440 347-455): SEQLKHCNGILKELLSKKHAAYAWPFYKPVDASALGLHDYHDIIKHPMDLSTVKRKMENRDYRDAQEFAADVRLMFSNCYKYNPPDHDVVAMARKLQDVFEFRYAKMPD
From the text: as §1, §2

BRD4–BD2 = target: T3, BRD4–BD2 (Homo sapiens, UniProt O60885); test: SPR binding of peptides to BET bromodomains; settings: SPR 4 °C; biotinylated BD immobilized on biotin CAP chip, peptide flowed; 20 mM Mes pH 6.5, 150 mM NaCl, 0.05% Tween-20; steady state 1:1 fit; geometric mean of minimum three measurements
T3 construct: BRD4 (BD1: 42–168; BD2: 348–464); His tag (N); biotinylation (Avi-type acceptor, vector pQE80L-Navi) (N); made in house; host or cells: Escherichia coli
From the text: as §1, §2

BRD3–BD1 = target: T4, BRD3–BD1 (Homo sapiens, UniProt Q15059); test: Isothermal titration calorimetry (ITC); settings: ITC 25 °C, BRD3–BD1 titrated into peptide; fit to binding isotherm
T4 construct: BRD3 (BD1: 25–147; BD2: 307–419); His tag (N); biotinylation (Avi-type acceptor, vector pQE80L-Navi) (N); made in house; host or cells: Escherichia coli
T4 sequence (Q15059 25-147): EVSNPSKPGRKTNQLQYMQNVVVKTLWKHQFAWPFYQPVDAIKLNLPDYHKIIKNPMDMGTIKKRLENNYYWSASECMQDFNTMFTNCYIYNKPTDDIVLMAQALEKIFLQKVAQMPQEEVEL
From the text: as §1
The affinities and stoichiometry for the interaction of BRD3–BD1 with 2AcK and 2AcK.4E peptides were determined using a MicroCal PEAQ ITC (Malvern Instruments). Titrations of BRD3–BD1 (1 mM) into peptide (25–50 μM) were carried out at 25 °C using a 0.2 μl initial injection and 20 to 24 subsequence 1 to 3 μl injections. Data were analyzed using Malvern MicroCal PEAQ ITC Software, using a protein into buffer baseline correction and fitted with a one-site binding model.

[3] = Fig. 2A, one titration, fit to 1:1 binding model, BD immobilized, Mes pH 6.5, 4 °C
[4] = SPR 4 °C, biotinylated BD immobilized on biotin CAP chip, 20 mM Mes pH 6.5, 150 mM NaCl, 0.05% Tween-20, steady state 1:1 fit, geometric mean of minimum three measurements

| Substance | Solubility of the peptide (in words) [1] | Kd [2] [nM] | KD on plot, typical SPR titration, BRD3-BD2 (BRD3–BD2; [3]) | KD (SPR) BRD3–BD2 (BRD3–BD2; [4]) | KD on plot, typical SPR titration, BRD2-BD2 (BRD2–BD2; [3]) | KD (SPR) BRD2–BD2 (BRD2–BD2; [4]) | KD (SPR) BRD4–BD2 (BRD4–BD2) | N value (stoichiometry) from ITC fit (BRD3–BD1) |
| --- | --- | --- | --- | --- | --- | --- | --- | --- |
| ALLLAKLYHF [1AcK] | not soluble at concentrations high enough to allow measurements to be made | – | – | – | – | – | – | – |
| Ac-AQRSLK(Ac)LLK(Ac)HLYH-NH2 (C-terminus assumed) [2AcK] | slightly more soluble | 1000 to 2000 | No binding | no measurable binding | No binding | no measurable binding | a small degree of binding observed | ~2.5 |
